According to article PMC7980221 (Molecular Cell, 2021):
Where two headings read alike, the source gives them in different places. Each block holds one compound with its values, some of them ahead of it.

Key:
[1] = cited from earlier work
NavMs [2] = target: T1, NavMs (Magnetococcus marinus, UniProt A0L5S6); experiment: cell-based
hNav1.2 = hNav1.2 (Homo sapiens, UniProt Q99250); experiment: Whole-cell patch-clamp INa inhibition, hNav1.2 in HEK293 cells; assay type: cell-based
[3] = target: NavMs D220E mutant channel (Magnetococcus marinus, UniProt A0L5S6, D220E); experiment: cell-based; assay type: cell-based
NavMs [4] = target: T1, NavMs; experiment: Mechanism and kinetics of NavMs INa inhibition; assay type: cell-based
[5] = tested on: endogenous sodium currents of MDA-MB-231 cells (nNav1.5, Nav1.7); experiment: Voltage clamp of endogenous sodium currents in MDA-MB-231 cells; assay type: cell-based; conditions: Homo sapiens, MDA-MB-231, read-out: Potency of sodium current inhibition (IC50), MDA-MD-231 cells
[6] = target: NavMs E227D mutant channel (Magnetococcus marinus, UniProt A0L5S6, E227D); experiment: cell-based
[7] = target: NavMs F208L mutant (NavMsL) (Magnetococcus marinus) (UniProt A0L5S6); experiment: crystal structure
ER = conditions: cited from earlier work

hNav1.2, sequence (Q99250 whole entry): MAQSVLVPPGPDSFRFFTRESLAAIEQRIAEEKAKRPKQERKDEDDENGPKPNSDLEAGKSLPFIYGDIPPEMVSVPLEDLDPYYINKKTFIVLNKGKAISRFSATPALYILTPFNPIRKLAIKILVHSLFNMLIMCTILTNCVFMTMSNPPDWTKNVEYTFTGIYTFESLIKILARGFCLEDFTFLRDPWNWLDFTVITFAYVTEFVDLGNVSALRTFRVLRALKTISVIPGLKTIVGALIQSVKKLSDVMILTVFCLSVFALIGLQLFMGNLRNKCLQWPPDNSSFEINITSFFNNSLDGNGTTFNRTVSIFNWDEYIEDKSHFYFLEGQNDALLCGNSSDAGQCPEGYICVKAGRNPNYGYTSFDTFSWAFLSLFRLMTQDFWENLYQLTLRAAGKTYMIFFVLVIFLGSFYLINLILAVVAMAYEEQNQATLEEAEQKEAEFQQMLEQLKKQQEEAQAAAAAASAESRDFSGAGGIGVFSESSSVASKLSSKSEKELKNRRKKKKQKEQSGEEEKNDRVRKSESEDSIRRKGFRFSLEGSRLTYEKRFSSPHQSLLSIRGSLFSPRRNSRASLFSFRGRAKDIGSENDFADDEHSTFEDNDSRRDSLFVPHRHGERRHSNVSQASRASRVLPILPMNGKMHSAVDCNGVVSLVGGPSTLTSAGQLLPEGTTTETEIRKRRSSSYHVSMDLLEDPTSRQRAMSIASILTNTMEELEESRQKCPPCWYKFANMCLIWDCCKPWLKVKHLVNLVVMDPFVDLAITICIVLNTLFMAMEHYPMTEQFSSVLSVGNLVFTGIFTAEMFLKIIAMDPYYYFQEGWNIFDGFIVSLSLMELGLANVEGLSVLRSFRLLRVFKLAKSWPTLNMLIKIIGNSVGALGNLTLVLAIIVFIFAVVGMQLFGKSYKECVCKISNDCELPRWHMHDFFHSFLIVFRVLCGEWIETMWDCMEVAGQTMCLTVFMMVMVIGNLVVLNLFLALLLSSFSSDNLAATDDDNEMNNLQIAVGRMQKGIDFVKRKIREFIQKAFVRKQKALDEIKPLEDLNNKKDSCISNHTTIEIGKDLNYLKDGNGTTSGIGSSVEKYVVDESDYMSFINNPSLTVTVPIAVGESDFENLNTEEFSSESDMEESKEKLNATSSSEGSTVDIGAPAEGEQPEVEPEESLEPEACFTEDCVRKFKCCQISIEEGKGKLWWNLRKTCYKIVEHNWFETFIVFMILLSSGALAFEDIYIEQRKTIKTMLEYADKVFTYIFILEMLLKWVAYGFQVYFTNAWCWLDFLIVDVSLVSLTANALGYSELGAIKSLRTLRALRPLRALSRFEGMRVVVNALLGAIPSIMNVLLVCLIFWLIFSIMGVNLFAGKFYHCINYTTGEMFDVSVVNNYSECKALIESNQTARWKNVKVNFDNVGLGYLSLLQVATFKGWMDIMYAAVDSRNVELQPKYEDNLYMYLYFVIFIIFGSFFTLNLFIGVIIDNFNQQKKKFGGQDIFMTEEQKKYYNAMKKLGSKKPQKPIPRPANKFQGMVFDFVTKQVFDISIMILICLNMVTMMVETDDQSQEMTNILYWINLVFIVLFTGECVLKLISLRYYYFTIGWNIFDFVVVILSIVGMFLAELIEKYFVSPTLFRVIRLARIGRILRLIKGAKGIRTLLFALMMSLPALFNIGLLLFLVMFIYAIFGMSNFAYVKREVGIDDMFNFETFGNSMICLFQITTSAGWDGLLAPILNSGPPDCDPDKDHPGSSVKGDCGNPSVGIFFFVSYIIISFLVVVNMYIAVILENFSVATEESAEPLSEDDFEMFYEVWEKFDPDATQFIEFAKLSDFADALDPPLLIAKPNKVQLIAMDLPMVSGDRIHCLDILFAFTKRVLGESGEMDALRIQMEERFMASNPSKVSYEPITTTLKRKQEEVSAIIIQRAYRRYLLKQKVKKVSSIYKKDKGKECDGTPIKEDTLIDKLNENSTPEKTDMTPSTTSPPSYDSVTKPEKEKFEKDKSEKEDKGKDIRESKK

stoichiometry N [7]: 4
Compound: NavMs F208L mutant (NavMsL) (from UniProt A0L5S6 1-274) (natural protein)

IC50 (NavMs [2]): 328 ± 89 nM | Average slope of the Hill fit, NavMs, HEK cells (NavMs [2]; value in parentheses, error SD): 1.09 ± 0.1 | IC50 (hNav1.2): 3100 ± 130 nM | Average slope of the Hill fit, NaV1.2, HEK cells (hNav1.2; value in parentheses, error SD): 0.97 ± 0.1
Compound: CC/C(=C(\c1ccc(O)cc1)c1ccc(OCCNC)cc1)c1ccccc1 [Endoxifen]

Average slope of the Hill fit, NaV1.2, HEK cells (hNav1.2): 2.4 ± 0.11 μM (1.05 ± 0.1) | IC50 (hNav1.2): 2400 nM
Compound: CC/C(=C(\c1ccccc1)c1ccc(OCCN(C)C)cc1)c1ccccc1 [Tamoxifen]

Average slope of the Hill fit, NavMs, HEK cells (NavMs [2]): 1.1 ± 0.16 μM (1.11 ± 0.1) | IC50 (NavMs [2]; read-out: Potency of sodium current inhibition (IC50), NavMs, HEK cells): 1100 nM | Average slope of the Hill fit, NaV1.2, HEK cells (hNav1.2): 3.2 ± 0.12 μM (0.96 ± 0.1) | IC50 (hNav1.2; read-out: Potency of sodium current inhibition (IC50), NaV1.2, HEK cells): 3200 nM
Compound: CC/C(=C(\c1ccccc1)c1ccc(OCCNC)cc1)c1ccccc1 [NM-Tam, N-desmethyltamoxifen]
Affinity for ER, times lower than that of tamoxifen (ER): ~100 times

Continued, compound first:

Compound: CC/C(=C(\c1ccc(O)cc1)c1ccc(OCCN(C)C)cc1)c1ccccc1 [4OH-Tam, 4-hydroxytamoxifen]
Potency in vivo as an anti-estrogen relative to tamoxifen [1]: 30- to 100 fold | IC50 (NavMs [2]): 297 ± 75 nM | Average slope of the Hill fit, NavMs, HEK cells (NavMs [2]; value in parentheses, error SD): 1.14 ± 0.1 | IC50 (hNav1.2): 2100 ± 140 nM | Average slope of the Hill fit, NaV1.2, HEK cells (hNav1.2; value in parentheses, error SD): 0.96 ± 0.1 | IC50 [3]: 3600 ± 140 nM | Loss in free energy of binding (ΔG°) [3]: 1.5 kcal/mol | Average slope of the Hill fit, D220E, HEK cells ([3]; value in parentheses, error SD): 1.17 ± 0.1 | Delay of rate of recovery from inactivation (τrec) following drug treatment (NavMs [4]): ~10 fold | INa inhibition with 7 ms vs 150 ms depolarization trains, times less (NavMs [4]): 3.4 times | Kinetics of INa inhibition (τon), times slower than cadmium (NavMs [4]): 16 times | Shift of voltage dependence of activation and inactivation (NavMs [4]): no significant shifts in either parameter | IC50 [5]: 890 nM | IC50 [6]: 2800 ± 160 nM | Average slope of the Hill fit, E227D, HEK cells ([6]; value in parentheses, error SD): 1.13 ± 0.1

Compound: CC/C(=C(\c1ccc(O)cc1)c1ccc(OCCN(C)C)cc1)c1ccccc1.Cl [Z-4OH-Tam, Z-4-Hydroxytamoxifen hydrochloride]
Average slope of the Hill fit, NavMs, HEK cells (NavMs [2]; value in parentheses, error SD): 1.05 ± 0.1 | Average slope of the Hill fit, NaV1.2, HEK cells (hNav1.2; value in parentheses, error SD): 0.95 ± 0.1

Compound: CC/C(=C(/c1ccc(O)cc1)c1ccc(OCCN(C)C)cc1)c1ccccc1.Cl [E-4OH-Tam, E-4-Hydroxytamoxifen hydrochloride]
Average slope of the Hill fit, NavMs, HEK cells (NavMs [2]; value in parentheses, error SD): 1.15 ± 0.1 | Average slope of the Hill fit, NaV1.2, HEK cells (hNav1.2; value in parentheses, error SD): 0.94 ± 0.1
